The values below are quoted from earlier work in patent publication US4657924A, “Nafazatrom as a lipoxygenase inhibitor” (priority 1983, dated 1987).

In one series the test system is cyclooxygenase. Particulars: stated disadvantage; cited from earlier work.
For series [1], the system named is synthesis of prostaglandins from arachidonic acid. Particulars: comparison with nafazatrom; cited from earlier work.

Structures are written as SMILES.

For `CC(Cc1ccc(O)c(O)c1)C(C)Cc1ccc(O)c(O)c1` (stereo not shown) [nordihydroguaiaretic acid], the “activity of known lipoxygenase inhibitors as cyclooxygenase inhibitors” value (shortened to “activity … as cyclooxygenase inhibitors”) in the series on cyclooxygenase is recorded as “either at the same time active as cyclooxygenase inhibitors or active only in very high concentrations”.
As for `COc1ccc2c(c1)c(CC(=O)O)c(C)n2C(=O)c1ccc(Cl)cc1` [indomethacin], in series [1], the “action on the synthesis of prostaglandins from arachidonic acid” value is “overall inhibiting action”.
Take `O=C1CCN(c2ccccc2)N1` [phenidone]: the “activity … as cyclooxygenase inhibitors” value in the series on cyclooxygenase is “either at the same time active as cyclooxygenase inhibitors or active only in very high concentrations”.
For the molecule `CCCCCC#CCC#CCC#CCC#CCCCC(=O)O` [5,8,11,14-eicosatetrainoic acid], in the series with cyclooxygenase, the “activity … as cyclooxygenase inhibitors” value is “either at the same time active as cyclooxygenase inhibitors or active only in very high concentrations”.
